Results on 23 compounds are retold here after PubChem BioAssay (NCI).

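Grown in 96-well plates, cells were treated for 48 hours with each compound at five concentrations. Insufficient inhibition: endpoint recorded as highest concentration tested. TGI marks complete inhibition of growth.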 Where a SMILES comes first, the peptide text is derived from it. [ ]: non-standard residue; d: D form. The star is where a group is joined. ξ: configuration not given here. Propanoyl(3-(4-MeO-Ph)) = COc1ccc(CCC(=O)*)cc1; Thr(3ξ) = CC(O)[C@H](N)C(=O)O; dNMeL = CN[C@H](CC(C)C)C(=O)O; OBn = c1ccc(CO*)cc1; ξLac = CC(O)C(=O)O Where only a bound is given, the exact number is not on record here.

Test systems include OVCAR-4 ovarian; MCF7 breast; SK-MEL-2 melanoma; K-562 leukemia; SF-539 CNS.
What all share (experiment): growth of human tumour cells (NCI), 48 h

For the compound `N=c1oc2ccc(Cl)cc2cc1C(=O)NCc1ccccc1`, the TGI was greater than 100 µM in the assay on OVCAR-4 ovarian; greater than 100 µM with MCF7 breast; greater than 100 µM with SK-MEL-2 melanoma; greater than 70.4 µM in the assay on K-562 leukemia; greater than 100 µM with SF-539 CNS.
For the compound `O=C(/C=C\Nc1ccccc1O)C(Cl)(Cl)Cl`, the TGI with OVCAR-4 ovarian was greater than 100 µM; in the assay with MCF7 breast, 64.5 µM; in the assay on SK-MEL-2 melanoma, greater than 100 µM; in the assay with K-562 leukemia it was greater than 100 µM; in the assay with SF-539 CNS it was greater than 100 µM.
With `O=C(N/N=C\c1ccc([N+](=O)[O-])cc1)c1ccccc1Nc1ccccc1C(=O)N/N=C/c1ccc([N+](=O)[O-])cc1`, the TGI in the assay with OVCAR-4 ovarian, in the assay with MCF7 breast, with SK-MEL-2 melanoma and with K-562 leukemia was greater than 100 µM each time.
As to `Cc1ccc(Nc2nc(=O)[nH]c(=O)[nH]2)cc1N=[N+]=[N-]`, the TGI with OVCAR-4 ovarian, with MCF7 breast, with SK-MEL-2 melanoma, in the assay with K-562 leukemia and in the assay on SF-539 CNS was greater than 100 µM throughout.
Regarding `NC12CC3CC4C1CC1CC2C(C3)C4(N)C1`, the TGI in the assay with OVCAR-4 ovarian, with MCF7 breast, with SK-MEL-2 melanoma and in the assay on K-562 leukemia was greater than 100 µM each time.
Consider `CCOC(=O)c1cc(=O)oc2c1N(C)c1ncccc1N2`, for which the TGI in the assay with OVCAR-4 ovarian, in the assay with MCF7 breast, with SK-MEL-2 melanoma and in the assay on K-562 leukemia was greater than 100 µM throughout.
For `O=C(OCC1CCCN2CCCCC12)c1ccncc1` (stereo unspecified), the TGI with OVCAR-4 ovarian, in the assay with MCF7 breast, in the assay on SK-MEL-2 melanoma, with K-562 leukemia and in the assay with SF-539 CNS was greater than 100 µM throughout.
In the case of `O=c1c(O)c(-c2cc(O)c(O)cc2O)oc2cc(O)c(C3OC(CO)C(O)C(O)C3O)c(O)c12` (stereo unspecified), the TGI with OVCAR-4 ovarian, in the assay with MCF7 breast, in the assay with SK-MEL-2 melanoma, in the assay with K-562 leukemia and in the assay with SF-539 CNS was greater than 100 µM in each case.
In the case of `N#C[C@@]12CCCC(=O)[C@@H]1[C@H]1CCC[C@H]12`, the TGI in the assay on OVCAR-4 ovarian is 58.6 µM; in the assay with MCF7 breast, 49.8 µM; in the assay on SK-MEL-2 melanoma, 43.3 µM; in the assay on K-562 leukemia, 37.7 µM; with SF-539 CNS, 59.9 µM.
Consider `O[C@H]1[C@H](O)[C@H](O)CN2CCC[C@@H](O)[C@H]12`, for which the TGI with OVCAR-4 ovarian, in the assay with MCF7 breast, with SK-MEL-2 melanoma, in the assay with K-562 leukemia and in the assay with SF-539 CNS was greater than 100 µM throughout.
Take `CCOP(=O)(OCC)/C(C#N)=C/c1cccn1N(C)C`: the TGI with OVCAR-4 ovarian, in the assay with MCF7 breast, in the assay on SK-MEL-2 melanoma, in the assay with K-562 leukemia and in the assay with SF-539 CNS was greater than 100 µM each time.
As for `CCc1n[nH]c(=O)n1NC(=O)c1ccccc1C(=O)O`, the TGI with OVCAR-4 ovarian, in the assay with MCF7 breast, in the assay on SK-MEL-2 melanoma, in the assay on K-562 leukemia and with SF-539 CNS was greater than 100 µM in each case.
With `O=C(CCc1ccccc1CO)NCCc1ccccc1`, the TGI in the assay with OVCAR-4 ovarian, in the assay with MCF7 breast, in the assay on SK-MEL-2 melanoma, in the assay on K-562 leukemia and with SF-539 CNS was greater than 100 µM in each case.
On to `COc1ccc(CCC(=O)OC(C)[C@H](NC(=O)[C@@H](CC(C)C)N(C)C(=O)[C@@H]2CCCN2C(=O)C(C)O)C(=O)OCc2ccccc2)cc1` (stereo partly specified) (H-[ξLac]P[dNMeL][Thr(3ξ)](Propanoyl(3-(4-MeO-Ph)))-OBn), for which the TGI is greater than 100 µM in the assay on OVCAR-4 ovarian; greater than 100 µM in the assay on MCF7 breast; 36.9 µM with SK-MEL-2 melanoma; 74.5 µM in the assay with K-562 leukemia; 46.2 µM with SF-539 CNS.
Consider `CC1=C(C(=O)Nc2ccccc2)C(c2ccc(C)o2)C(C#N)=C(SCc2ccccc2)N1` (stereo unspecified), for which the TGI in the assay on OVCAR-4 ovarian, in the assay on MCF7 breast, in the assay on SK-MEL-2 melanoma, in the assay with K-562 leukemia and in the assay on SF-539 CNS was greater than 100 µM each time.
Turning to `O=C(/C=C/c1cccs1)c1cccc(C(=O)/C=C/c2cccs2)n1`, the TGI in the assay on OVCAR-4 ovarian is greater than 100 µM; in the assay on MCF7 breast, greater than 100 µM; in the assay with SK-MEL-2 melanoma it was greater than 100 µM; with K-562 leukemia, greater than 100 µM; in the assay on SF-539 CNS, 21.5 µM.
As to `CN(C)CCNC(=O)c1ccc(NCCCN(C)CCCNc2ccc(C(=O)NCCN(C)C)c3[nH]c4ccc([N+](=O)[O-])cc4c(=O)c23)c2c(=O)c3cc([N+](=O)[O-])ccc3[nH]c12`, the TGI in the assay with OVCAR-4 ovarian is 1.55 µM; with MCF7 breast, 0.655 µM; with SK-MEL-2 melanoma, 0.382 µM; in the assay on K-562 leukemia, 1.83 µM.
As to `COc1ccc(-n2c3c(c4c(CN(C)C)c(O)ccc42)C(=O)c2ccccc2C3=O)cc1`, the TGI in the assay with OVCAR-4 ovarian was 15.9 µM; in the assay on MCF7 breast, 24.9 µM; with SK-MEL-2 melanoma, 45.8 µM; in the assay with K-562 leukemia it was 4.62 µM; with SF-539 CNS it was 3.89 µM.
On the same counts, the results for `CCCC#CC(O)(C(=O)OC1CCN(C)CC1)C1CCCCC1` (stereo unspecified) are greater than 100 µM, greater than 100 µM, greater than 100 µM, greater than 100 µM and greater than 100 µM.
For `CC1(C)N=C(/C=N/O)C(C)(C)N1O` the same measures were greater than 100 µM, greater than 100 µM, greater than 100 µM, greater than 100 µM and greater than 100 µM.
As to `O=C1OC[C@@H]2Cc3c([nH]c4ccccc34)[C@@H](c3cc(O)c(O)c(O)c3)N12`, the TGI worked out at 26.1 µM with OVCAR-4 ovarian; 84.1 µM in the assay on MCF7 breast; 18.9 µM with SK-MEL-2 melanoma; 58.7 µM in the assay with K-562 leukemia; 37.9 µM with SF-539 CNS.
On the same counts, the results for `COc1cc(C(=O)Nc2c3ccccc3nc3ccccc23)cc(OC)c1OC` are greater than 100 µM, greater than 100 µM, greater than 100 µM, greater than 100 µM and greater than 100 µM.
As to `CC(=O)c1c(-c2ccccc2)c(-c2ccc(OCCN(C)C)cc2)n2ccccc12`, the TGI was greater than 100 µM with OVCAR-4 ovarian; 32.3 µM in the assay with MCF7 breast; 33.3 µM in the assay on SK-MEL-2 melanoma; greater than 100 µM in the assay with K-562 leukemia; 27.1 µM with SF-539 CNS.
